Structures are written as SMILES. Where a name gives a salt, the structure may show the parent alone.

The assay relates to Acinetobacter baumannii ATCC 17961. As to the kind of experiment: Antimicrobial susceptibility testing: 90% growth inhibitory concentration (IC90) determination. The assay is classed as cell-based. Particulars: ATCC17961, Acinetobacter baumannii ATCC 17961, Iso-Sensitest broth, read-out: ATCC 17961 IC90. A digest of the protocol: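 Broth microdilution in Iso-Sensitest medium, twofold series (e.g. 50 to 0.097 μM final), ~5×10^5 CFU/ml inoculum, 35±2 °C. OD600 read every 20 min over 16 h. IC90 derived from growth inhibition during logarithmic phase.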
As for `Cn1c(-c2cn(CC(F)F)nc2C(F)(F)F)cnc1C(=O)Nc1ccc(S(=O)(=O)N2CCNCC2)cc1` [Example 244, 5-(1-(2,2-difluoroethyl)-3-(trifluoromethyl)-1H-pyrazol-4-yl)-1-methyl-N-(4-(piperazin-1-ylsulfonyl)phenyl)-1H-imidazole-2-carboxamide hydrochloride], the IC90 (commonly the concentration needed for an effect of 90%) was 287 nM.
The same measure for `C#CCn1cc(-c2cnc(C(=O)Nc3ccc(C(=O)NC4C5CN(C(=O)C6CCNCC6)CC54)c(Cl)c3)n2C)c(C(F)(F)F)n1` (stereo not shown) [Example 245, N-(3-chloro-4-((3-(piperidine-4-carbonyl)-3-azabicyclo[3.1.0]hexan-6-yl)carbamoyl)phenyl)-1-methyl-5-(1-(prop-2-yn-1-yl)-3-(trifluoromethyl)-1H-pyrazol-4-yl)-1H-imidazole-2-carboxamide formate]: 288 nM.
Under `Cn1c(-c2cn(C3CC3)nc2C(F)(F)F)cnc1C(=O)Nc1ccc(C(=O)N2CCN(C(=O)C[C@H]3CCNC3)CC2)c(Cl)c1` [Example 246, (R)-N-(3-chloro-4-(4-(2-(pyrrolidin-3-yl)acetyl)piperazine-1-carbonyl)phenyl)-5-(1-cyclopropyl-3-(trifluoromethyl)-1H-pyrazol-4-yl)-1-methyl-1H-imidazole-2-carboxamide hydrochloride] stands 293 nM; under `Cn1c(-c2cn(C3CC3(F)F)nc2C(F)(F)F)cnc1C(=O)Nc1ccc(C(=O)NCCCCCN)c(Cl)c1` (stereo not shown) [Example 247, N-(4-((5-aminopentyl)carbamoyl)-3-chlorophenyl)-5-(1-(2,2-difluorocyclopropyl)-3-(trifluoromethyl)-1H-pyrazol-4-yl)-1-methyl-1H-imidazole-2-carboxamide], 295 nM.
The same measure for `Cn1c(-c2cn(C3CC3(F)F)nc2C(F)(F)F)cnc1C(=O)Nc1ccc(C(=O)NC2[C@H]3CN(C(=O)NC(CN)CCl)C[C@@H]23)c(Cl)c1` (stereo partly drawn) [Example 248, cis-N-(1-amino-3-chloropropan-2-yl)-6-[[2-chloro-4-[[5-[1-(2,2-difluorocyclopropyl)-3-(trifluoromethyl)pyrazol-4-yl]-1-methylimidazole-2-carbonyl]amino]benzoyl]amino]-3-azabicyclo[3.1.0]hexane-3-carboxamide, formate salt]: 297 nM; for `Cn1c(-c2cn(C3CC3)nc2C(F)(F)F)cnc1C(=O)Nc1ccc(C(=O)N2CCC3(CCNCC3)CC2)c(Cl)c1` [Example 249, N-(3-chloro-4-(3,9-diazaspiro[5.5]undecane-3-carbonyl)phenyl)-5-(1-cyclopropyl-3-(trifluoromethyl)-1H-pyrazol-4-yl)-1-methyl-1H-imidazole-2-carboxamide hydrochloride]: 300 nM; for `Cn1c(-c2cn(C3CC3)nc2C(F)(F)F)cnc1C(=O)Nc1ccc(C(=O)N2CCN(C(=O)[C@H]3CCCN3)CC2)c(Cl)c1` [Example 250, (R)-N-(3-chloro-4-(4-prolylpiperazine-1-carbonyl)phenyl)-5-(1-cyclopropyl-3-(trifluoromethyl)-1H-pyrazol-4-yl)-1-methyl-1H-imidazole-2-carboxamide hydrochloride]: 302 nM.
For the compound `Cn1c(-c2cn(CCCl)nc2C(F)(F)F)cnc1C(=O)Nc1ccc(C(=O)N2CCN(C(=O)NC3CNC3)CC2)c(Cl)c1` [Example 251, N-(azetidin-3-yl)-4-[2-chloro-4-[[5-[1-(2-chloroethyl)-3-(trifluoromethyl)pyrazol-4-yl]-1-methyl-imidazole-2-carbonyl]amino]benzoyl]pipera-zine-1-carboxamide], the IC90 amounted to 306 nM.
Take `Cn1c(-c2cn(C3CC3)nc2C(F)(F)F)cnc1C(=O)Nc1ccc(C(=O)N2CCN(C(=O)CCN)CC2)c(Cl)c1` [Example 252, N-(4-(4-(3-aminopropanoyl)piperazine-1-carbonyl)-3-chlorophenyl)-5-(1-cyclopropyl-3-(trifluoromethyl)-1H-pyrazol-4-yl)-1-methyl-1H-imidazole-2-carboxamide hydrochloride]: the IC90 stood at 308 nM.
Under `Cn1c(-c2cn(CC#N)nc2C(F)(F)F)cnc1C(=O)Nc1ccc(C(=O)N[C@H]2C[C@@H](NC(=O)[C@@H]3CCNC3)C2)c(Cl)c1` [Example 253, N-[3-chloro-4-[[3-[[(3R)-pyrrolidine-3-carbonyl]amino]cyclobutyl]car-bamoyl]phenyl]-5-[1-(cyanomethyl)-3-(trifluoromethyl)pyrazol-4-yl]-1-methyl-imidazole-2-carboxamide; formic acid] stands 309 nM; under `C=C(C)Cn1cc(-c2cnc(C(=O)Nc3ccc(C(=O)NCCCN)c(Cl)c3)n2C)c(C(F)(F)F)n1` [Example 255, N-(4-((3-aminopropyl)carbamoyl)-3-chlorophenyl)-1-methyl-5-(1-(2-methylallyl)-3-(trifluoromethyl)-1H-pyrazol-4-yl)-1H-imidazole-2-carboxamide tris(2,2,2-trifluoroacetate)], 312 nM; under `C=C(C)Cn1cc(-c2cnc(C(=O)Nc3ccc(C(=O)N4CCN(C(=O)[C@H]5[C@@H]6CNC[C@@H]65)CC4)c(Cl)c3)n2C)c(C(F)(F)F)n1` [Example 257, rac-N-(4-(4-((1R,5S,6r)-3-azabicyclo[3.1.0]hexane-6-carbonyl)piperazine-1-carbonyl)-3-chlorophenyl)-1-methyl-5-(1-(2-methylallyl)-3-(trifluoromethyl)-1H-pyrazol-4-yl)-1H-imidazole-2-carboxamide hydrochloride], 313 nM.
Turning to `Cn1c(-c2cn(C3CC3)nc2C(F)(F)F)cnc1C(=O)Nc1ccc(C(=O)N2CCN(C(=O)[C@]3(C)CCCN3)CC2)c(Cl)c1` [Example 258, (S)-N-(3-chloro-4-(4-(2-methylpyrrolidine-2-carbonyl)piperazine-1-carbonyl)phenyl)-5-(1-cyclopropyl-3-(trifluoromethyl)-1H-pyrazol-4-yl)-1-methyl-1H-imidazole-2-carboxamide hydrochloride], the IC90 turned out to be 314 nM.
Regarding `Cn1c(-c2cn(C3C=C(F)C3)nc2C(F)(F)F)cnc1C(=O)Nc1ccc(C(=O)N[C@H]2[C@@H]3CN(C(=O)C4CCNCC4)C[C@@H]32)c(Cl)c1` (stereo partly drawn) [Example 259, N-(3-chloro-4-(((exo)-3-(piperidine-4-carbonyl)-3 azabicyclo[3.1.0]hexan-6-yl)carbamoyl)phenyl)-5-(1-(3-fluorocyclobut-2-en-1-yl)-3-(trifluoromethyl)-1H-pyrazol-4-yl)-1-methyl-1H-imidazole-2-carboxamide formate], the IC90 stood at 314 nM.
The same measure for `Cn1c(-c2cn(CC3CCC3)nc2C(F)(F)F)cnc1C(=O)Nc1ccc(C(=O)N2CCN(C(=O)N[C@H]3C[C@@H](N)C3)CC2)c(Cl)c1` [Example 260, rac-N-((1s,3s)-3-aminocyclobutyl)-4-(2-chloro-4-(5-(1-(cyclobutylmethyl)-3-(trifluoromethyl)-1H-pyrazol-4-yl)-1-methyl-1H-imidazole-2-carboxamido)benzoyl)piperazine-1-carboxamide hydrochloride]: 314 nM.
The same measure for `C#CCn1cc(-c2cnc(C(=O)Nc3ccc(C(=O)N4CCN(C(=O)C5CCNCC5)CC4)c(F)c3)n2C)c(C(F)(F)F)n1` [Example 261, N-(3-fluoro-4-(4-(piperidine-4-carbonyl)piperazine-1-carbonyl)phenyl)-1-methyl-5-(1-(prop-2-yn-1-yl)-3-(trifluoromethyl)-1H-pyrazol-4-yl)-1H-imidazole-2-carboxamide]: 323 nM.

Source of the values: patent US11390604B2 (Hoffmann-La Roche Inc., priority 2019, dated 2022).
